Laboratory results: PubChem BioAssay (NCI)
Values joined by “and” are separate entries in the source; they are usually repeats but may differ in a detail not shown here. Equal values may be shown once.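 Five compound concentrations were applied to cells in 96-well plates for 48 hours; endpoints were derived by simple linear interpolation of the resulting dose-response curve. GI50 = concentration required for 50% inhibition of growth. TGI marks complete inhibition of growth.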

How the values were obtained:
Assay in all cases: inhibition of tumour cell growth, NCI panel, 48 h
SW-620 colon = system: SW-620 colon
NCI-H226 lung = system: NCI-H226 lung
CCRF-CEM leukemia = system: CCRF-CEM leukemia
ACHN renal = system: ACHN renal
SK-MEL-28 melanoma = system: SK-MEL-28 melanoma
A498 renal = system: A498 renal
HOP-62 NSCLC = system: HOP-62 NSCLC
NCI-H522 lung = system: NCI-H522 lung
HCC-2998 colon = system: HCC-2998 colon
DU-145 prostate = system: DU-145 prostate

Row | SMILES | GI50 (SW-620 colon) | TGI (SW-620 colon) [µM] | GI50 (NCI-H226 lung) | TGI (NCI-H226 lung) | GI50 (CCRF-CEM leukemia) | TGI (CCRF-CEM leukemia) [µM] | GI50 (ACHN renal) | TGI (ACHN renal) [µM] | GI50 (SK-MEL-28 melanoma) | TGI (SK-MEL-28 melanoma) [µM] | GI50 (A498 renal) | TGI (A498 renal) | GI50 (HOP-62 NSCLC) | TGI (HOP-62 NSCLC) | GI50 (NCI-H522 lung) | TGI (NCI-H522 lung) [µM] | GI50 (HCC-2998 colon) | TGI (HCC-2998 colon) [µM] | GI50 (DU-145 prostate) | TGI (DU-145 prostate) [µM]
1 | C=CC[n+]1c(/C=C/C=C2\N(C)c3ccccc3C2(C)C)sc2ccc(OC)cc21 | 0.34 µM | 14.3 | 0.282 µM | 13 µM | 0.287 µM | 12.7 | 1.65 µM | 10.9 | 0.464 µM | 4.79 | 0.278 µM | 4.37 µM | 0.291 µM | 11.9 µM | 0.133 µM | 2.6 | 0.258 µM | 21.3 | 0.34 µM | 15.6
2 | NCCNc1c2c(c(NCCN)c3c(CO)c[nH]c13)C(=O)c1ccccc1C2=O | 8.7 µM | > 100 | 17.9 µM | 91.6 µM | 4.28 µM | > 100 | 35.9 µM | > 100 | 24.5 µM | > 100 | 41.2 µM | > 100 µM | 4.22 µM | > 100 µM | 8.13 µM | > 100 | 7.14 µM | 52.3 | 12 µM | > 100
3 | CCc1nc(N)nc(N)c1-c1ccc(NCCN)c([N+](=O)[O-])c1 |  | > 100 |  | > 100 µM |  | > 72.4 |  | > 100 |  | > 100 |  | > 86.1 µM |  | 75.8 µM |  | > 51.1 |  | 50.7 |  | > 100
4 | COc1cc(C(=O)/C=C/c2c(C)n([O-])c3ccc(C)cc3[n+]2=O)cc(OC)c1OC | 1.53 µM | 3.02 | 30.6 µM | > 100 µM | 2.83 µM | > 100 | 2.23 µM | 5.6 | 2.41 µM | 6.54 | 14.5 µM | 38.6 µM | 21.3 µM | 47.8 µM | 0.741 µM | 2.29 | 17 µM | 31 | 7.88 µM | 21.1
5 | C/C(=N\NC(=O)c1sc(=S)n(C)c1N)c1cc2ccccc2o1 | 14.8 µM | 28.4 | 18.7 µM | 40.4 µM | 10.6 µM | 31 | 13.4 µM | 38.4 | 21.6 µM | > 100 | 4.58 µM | 18.9 µM | 13.3 µM | 27.2 µM | 15.5 µM | 39 | 11.8 µM | 27 | 11.4 µM | 27.6
6 | COc1cc(NS(C)(=O)=O)ccc1Nc1c2ccc([N+](=O)[O-])cc2nc2c(C)cccc12 | 0.349 µM | 12.2 | 0.338 µM | 4.16 µM | 0.158 µM | 3.4 | 0.371 µM | 4.29 | 2.73 µM | 17.4 | 0.226 µM | 2.92 µM | 0.107 µM | 6.37 µM | 1.07 µM | 2.9 | 2.07 µM | 7.28 | 0.133 µM | 10.7
7 | N#Cc1c(-c2ccccc2)nc(SCC2CO2)nc1N1CCOCC1 (stereo not given) | 28.8 µM | > 100 | 11.5 µM | > 100 µM | > 31 µM | > 100 | 4.27 µM | > 100 | 5.11 µM | 76.5 | 1.26 µM | 5.42 µM | 6.8 µM | > 86.8 µM | 27.5 µM | > 100 | 0.253 µM | 18.2 | 14.2 µM | > 100
8 | COc1cccc2c1C(=O)C=CC2=O |  | 23.6 |  | 38.3 µM |  | 1.65 |  | 10.5 |  | 33.6 |  | 29.9 µM |  | 34.4 µM |  | 5 |  | 29.3 |  | 33.5
9 | CN(Cc1cnc2nc(N)nc(N)c2n1)c1ccc(C(=O)NC(CCC(=O)O)C(=O)O)cc1C(F)(F)F (stereo not given) |  | > 100 |  | > 89 µM |  | 0.486 |  | > 100 |  | > 100 |  | > 100 µM |  | > 100 µM |  | > 100 |  | > 100 |  | > 100
10 | C[C@@H]1COCCN1c1cc(C2([S@](C)(=N)=O)CC2)nc(-c2ccnc3[nH]ccc23)n1 | 4.79 µM and > 10 µM | > 100 | 4.98 µM and 8.53 µM | 51.3 µM and > 10 µM | 1.21 µM and 1.11 µM | > 29 | 0.818 µM and 1.65 µM | > 100 | 10.9 µM and > 10 µM | > 79.7 | 0.43 µM and 1.27 µM | 3.71 µM and 8.78 µM | 2.86 µM and 1.75 µM | 52.1 µM and > 10 µM | 8.61 µM and 4.82 µM | > 84 | 2.56 µM and 4.97 µM | > 100 | 3.1 µM and 3.64 µM | > 100
11 | COc1ccc(-c2cc(-c3cc(Cl)ccc3Cl)nc3n[nH]c(N)c23)cc1 | 8.16 µM | > 100 | 63.4 µM | > 100 µM | 31 µM | 90.7 | 37.8 µM | > 100 | 26 µM | > 100 | 21 µM | 57.5 µM | 14.7 µM | 84.6 µM | 17.3 µM | 49.3 | 15.2 µM | 34.6 | 36 µM | > 100
